Test system: human liver microsomes, compound remaining, LC-MS
Experiment: human microsomal compound turnover – biochemical, with and without NADPH, LC-MS, set 2, ADME assay (AID 624452);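 also: compound left measured after 60 min microsomal incubation at 37 °C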
Conditions: at 1 µM; for percent remaining without NADPH: measured here: stability without NADPH control

Row | Structure (SMILES) | percent remaining with NADPH | percent remaining without NADPH
1 | O=S(=O)(NC1CCCCC1N1CCOCC1)c1ccc(Cl)cc1 (configuration not stated) | 0.11% | 78.2%
2 | CCN1CCN(c2nc3ccccc3nc2C(C#N)C(=O)OC2CCCCC2)CC1 (configuration not stated) | 14.2% | 80.8%
3 | Cc1ccc(NC(=O)CCC(=O)N/N=C/c2ccc([N+](=O)[O-])o2)cc1C | 37.5% | 72.6%
4 | O=c1[nH]c2c(s1)C(c1cccnc1)C1C3CCC(C3)C1S2 (configuration not stated) | 7.76% | 71.9%
5 | Oc1cc(O)cc(/C=C/c2ccc(O)c(O)c2)c1 | 45.9% | 87.6%
6 | Cc1nc(SCc2nc3ccccc3[nH]2)c2oc3ccccc3c2n1 | 0.22% | 70.5%
7 | N#C/C(=C\c1ccc([N+](=O)[O-])o1)c1nc2ccccc2[nH]1 | 0.29% | 52.4%
8 | COc1ccc(OC)c(-c2nnc3n2N=C(c2ccc(OC)c(OC)c2)CS3)c1 | 5.35% | 79.3%
9 | Cn1nnnc1Sc1ncnc2scc(-c3ccccc3)c12 | 28.1% | 67.5%
10 | CSc1nc(-c2ccc(C)cc2)nc(C(Cl)Cl)n1 | 10.8% | 42.1%
11 | CN(C)C1=C(Cl)C(=O)N(c2ccc(Cl)c(Cl)c2)C1=O | 0.26% | 36.9%
12 | c1ccc(-c2nnc(N3CCOCC3)nc2-c2ccccc2)cc1 | 31.1% | 79.8%
13 | Cc1cc2c(s1)c1cnn(Cc3ccccc3F)c(=O)c1n2C | 0.06% | 64.4%
14 | Brc1ccc2c(c1)CN1CCCC1=N2 | 56.4% | 77.8%
15 | CCCN1CNc2c(c(=O)[nH]c(=S)n2CCc2ccc(OC)c(OC)c2)C1 | 48.6% | 65%
16 | O=C(CCNS(=O)(=O)c1cccc2nsnc12)N1CCN(c2ccccn2)CC1 | 3.36% | 71.8%
17 | COc1ccc(S(=O)(=O)N2CCN(S(=O)(=O)c3ccc4c(c3)OCCO4)CC2)cc1 | 0.64% | 55.8%
18 | Cn1cnc([N+](=O)[O-])c1Sc1ncnc2nc[nH]c12 | 66.6% | 66.4%
19 | Brc1cc2c(cc1C1Nc3ccccc3C3C=CCC31)OCO2 (configuration not stated) | 28.7% | 65.5%

Further lines, results first:

Row | percent remaining with NADPH | percent remaining without NADPH | Structure (SMILES)
20 | 8.41% | 59.3% | COc1nc(-c2ccccc2)nnc1-c1ccccc1
21 | 64% | 78.9% | Cc1ccc(-n2c(N)c(C#N)c(-c3ccccc3)c(C#N)c2=O)cc1
22 | 49.2% | 76.4% | CC(C)C(=O)NC(c1ccco1)c1ccc2cccnc2c1O (configuration not stated)
23 | 22.7% | 62% | CCOc1ccc(NC(=S)N2CCC(C(O)(c3ccccc3)c3ccccc3)CC2)cc1
24 | 53.7% | 100% | COC(=O)c1ccccc1NC(=O)c1ccc(F)cc1
25 | 52.9% | 65.4% | COc1ccc(S(=O)(=O)n2nc(OC(=O)c3ccccc3)cc2N)cc1
26 | 4.43% | 79.7% | CC1CCCN(C(C(=O)Nc2ccc3c(c2)OCCO3)c2ccccc2)C1 (configuration not stated)
27 | 1.64% | 69.3% | C/C=C/Cn1c(SCCCc2ccccc2)nc2c1c(=O)[nH]c(=O)n2C
28 | 24% | 48.7% | Cc1ccc(C(=O)n2c3ccccc3c3ccccc32)cc1
29 | 64.4% | 68% | O=S1(=O)Nc2c(ccc3cccnc23)-c2ccccc21
30 | 69.2% | 76.8% | CCc1nnc(NC(=O)c2ccc(NS(=O)(=O)c3ccccc3)cc2)s1
31 | 1.54% | 39.7% | COc1ccc(N(C(=O)CCl)C(C(=O)NCCc2ccccc2)c2cccs2)cc1Cl (configuration not stated)
